The source of these data is article PMC9518264, “Design and synthesis of novel quinazolinone-based derivatives as EGFR inhibitors with antitumor activity” (Journal of Enzyme Inhibition and Medicinal Chemistry, 2022).

For one series, the target named is EGFR (Homo sapiens, UniProt P00533). The series is described as follows: In vitro EGFR kinase inhibitory assay (Kinase-Glo Max luminescence kit). Format: biochemical.
In a further series the test system is CAKI-1. The series is described as follows: cells. Format: cell-based. As to conditions: Homo sapiens.
Another series deals with MALME-3M. The series is described as follows: cells. Format: cell-based. The settings on record: Homo sapiens, read-out: growth inhibition % (GI%).
The subject of another series is RXF 393. The series is described as follows: cells. Format: cell-based. The settings on record: Homo sapiens.
The next series concerns M14. The series is described as follows: cells. The settings on record: Homo sapiens. Format: cell-based.
Another series relates to HS 578T. The series is described as follows: cells. As to conditions: Homo sapiens, read-out: growth inhibition % (GI%). It counts as cell-based.
For a further series, the system named is MCF7. The series is described as follows: cells. It counts as cell-based. As to conditions: Homo sapiens.
A further series has as its system DU-145. The series is described as follows: cells. It counts as cell-based. The settings on record: Homo sapiens.
The next series has as its system MOLT-4. The series is described as follows: cells. It counts as cell-based. As to conditions: Homo sapiens.
The next series concerns HL-60(TB). The series is described as follows: cells. Format: cell-based. The settings on record: Homo sapiens.
Another series deals with SF-295. The series is described as follows: cells. Format: cell-based. As to conditions: Homo sapiens.
The next series has as its system A549/ATCC. The series is described as follows: cells. It counts as cell-based. As to conditions: Homo sapiens.
A further series has as its system KM12. The series is described as follows: cells. Format: cell-based. As to conditions: Homo sapiens.
Another series has as its system HCT-15. The series is described as follows: cells. The settings on record: Homo sapiens. It counts as cell-based.
A further series relates to U251. The series is described as follows: cells. Format: cell-based. As to conditions: Homo sapiens.
Where [1] appears, read: CAKI-1, read-out: growth inhibition % (GI%).
[2] abbreviates: RXF 393, read-out: growth inhibition % (GI%).
Where [3] appears, read: M14, read-out: growth inhibition % (GI%).
Where [4] appears, read: MCF7, read-out: growth inhibition % (GI%).
The mark [5] stands for this setting: DU-145, read-out: growth inhibition % (GI%).
The mark [6] stands for this setting: MOLT-4, read-out: growth inhibition % (GI%).
Setting [7] is: HL-60, read-out: growth inhibition % (GI%).
[8] abbreviates: SF-295, read-out: growth inhibition % (GI%).
The mark [9] stands for this setting: A549, read-out: growth inhibition % (GI%).
Setting [10] is: KM12, read-out: growth inhibition % (GI%).
Where [11] appears, read: HCT-15, read-out: growth inhibition % (GI%).
Setting [12] is: U-251, read-out: growth inhibition % (GI%).
The mark [13] stands for this setting: MCF7, 10 μM, read-out: growth inhibition % (GI%).
Where [14] appears, read: DU-145, 10 μM, read-out: growth inhibition % (GI%).
Setting [15] is: MOLT-4, 10 μM, read-out: growth inhibition % (GI%).
The mark [16] stands for this setting: HL-60(TB), 10 μM, read-out: growth inhibition % (GI%).
The mark [17] stands for this setting: SF-295, 10 μM, read-out: growth inhibition % (GI%).
Setting [18] is: A549/ATCC, 10 μM, read-out: growth inhibition % (GI%).
Where [19] appears, read: KM12, 10 μM, read-out: growth inhibition % (GI%).
[20] abbreviates: HCT-15, 10 μM, read-out: growth inhibition % (GI%).
Setting [21] is: U-251, U251, 10 μM, read-out: growth inhibition % (GI%).

Where two headings read alike, the source gives them in different places. A value given as a limit tells only on which side of the number the result lay.

Chain of EGFR (P00533 669-1210): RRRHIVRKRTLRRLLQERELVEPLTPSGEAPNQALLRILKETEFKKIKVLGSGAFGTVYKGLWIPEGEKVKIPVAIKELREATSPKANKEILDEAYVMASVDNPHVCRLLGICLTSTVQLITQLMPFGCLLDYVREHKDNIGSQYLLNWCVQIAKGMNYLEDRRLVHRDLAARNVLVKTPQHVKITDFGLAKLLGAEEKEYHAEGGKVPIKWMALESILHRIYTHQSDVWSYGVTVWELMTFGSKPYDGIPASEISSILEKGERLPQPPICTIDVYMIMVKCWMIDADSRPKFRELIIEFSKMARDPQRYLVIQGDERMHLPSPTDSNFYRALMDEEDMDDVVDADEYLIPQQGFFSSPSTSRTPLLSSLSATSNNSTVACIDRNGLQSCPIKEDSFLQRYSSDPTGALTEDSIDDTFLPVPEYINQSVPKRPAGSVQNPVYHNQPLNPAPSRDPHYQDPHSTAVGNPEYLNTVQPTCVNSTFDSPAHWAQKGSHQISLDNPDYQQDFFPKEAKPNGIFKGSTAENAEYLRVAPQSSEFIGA

`O=C(CSc1nc2ccccc2c(=O)n1-c1ccccc1)NN=Cc1ccc(Oc2ccc(Br)cc2)cc1` [6b, N'-(4–(4-bromophenoxy)benzylidene)-2-((4-oxo-3-phenyl-3,4-dihydroquinazolin-2-yl)thio) acetohydrazide] returned an IC50 at EGFR of 0.487 ± 0.03 µM. Further, the inhibition at 10 µM in the series on CAKI-1 (setting [1]) came to 29.2%; in the series with MALME-3M (Malme-3M) it was 45.1%; in the series with RXF 393 (setting [2]), 37.8%; in the series on M14 (setting [3]), 43.7%; with HS 578T (Hs-578T), 39.2%; in the series with MCF7 (setting [4]), 31.1%. Moreover, the inhibition at 10 µM in the series with DU-145 (setting [5]) is 61.7%; in the series with MOLT-4 (setting [6]), 44.5%; in the series on HL-60(TB) (setting [7]) it was under 15%; in the series on SF-295 (setting [8]), 16.3%; in the series with A549/ATCC (setting [9]), 57.8%; in the series with KM12 (setting [10]) it was 23.7%. Besides, the inhibition at 10 µM stood at 36.3% with HCT-15 (setting [11]) and 78.5% in the series with U251 (setting [12]).
As for `O=C(CSc1nc2ccccc2c(=O)n1-c1ccccc1)NN=Cc1ccc(N2CCCCC2)cc1` [6g, 2-((4-oxo-3-phenyl-3,4-dihydroquinazolin-2-yl)thio)-N'-(4-(piperidin-1-yl)benzylidene) acetohydrazide], the melting point lay within 164 to 166 °C. In the series with CAKI-1 (CAKI-1, 10 μM, read-out: growth inhibition % (GI%)), the inhibition at 10 µM was 22%. Besides, the inhibition at 10 µM in the series on MALME-3M (MALME-3M, 10 μM) is under 15%. Further, the inhibition at 10 µM with RXF 393 (RXF 393, 10 μM, read-out: growth inhibition % (GI%)) is under 15%. Moreover, the inhibition at 10 µM with M14 (M14, 10 μM, read-out: growth inhibition % (GI%)) is under 15%. The inhibition at 10 µM in the series on HS 578T (HS 578T, 10 μM) was under 15%. In addition, the inhibition at 10 µM with MCF7 (setting [13]) was 16.2%. The inhibition at 10 µM in the series with DU-145 (setting [14]) is under 15%. For the same molecule, in the series with MOLT-4 (setting [15]), the inhibition at 10 µM was 28.5%. Moreover, the inhibition at 10 µM with HL-60(TB) (setting [16]) is under 15%. In addition, the inhibition at 10 µM in the series on SF-295 (setting [17]) was under 15%. For the same molecule, the inhibition at 10 µM in the series on A549/ATCC (setting [18]) stood at 15.1%. Besides, the inhibition at 10 µM in the series with KM12 (setting [19]) is under 15%. Also, in the series with HCT-15 (setting [20]), the inhibition at 10 µM came out at 16.2%. Also, in the series on U251 (setting [21]), the inhibition at 10 µM is under 15%.
At EGFR, `O=C(CSc1nc2ccccc2c(=O)n1-c1ccc(Cl)cc1)NN=Cc1ccc(N2CCCCC2)cc1` [6j, 2-((3–(4-chlorophenyl)-4-oxo-3,4-dihydroquinazolin-2-yl)thio)-N'-(4-(piperidin-1-yl)benzylidene) acetohydrazide] gave an IC50 of 0.478 ± 0.029 µM. Further, the inhibition at 10 µM is 35.8% with MALME-3M (Malme-3M); 62.1% with HS 578T (Hs-578T); 32.5% in the series with MCF7 (setting [4]); 70.9% in the series with DU-145 (setting [5]); under 15% in the series on MOLT-4 (setting [6]); under 15% in the series on HL-60(TB) (setting [7]). The inhibition at 10 µM in the series with SF-295 (setting [8]) worked out at 23.6%; in the series with A549/ATCC (setting [9]), 50.6%; with KM12 (setting [10]), 3.59%; in the series on HCT-15 (setting [11]) it was 32.2%; with U251 (setting [12]), 49.4%.
Take `O=C(CSc1nc2ccccc2c(=O)n1-c1ccccc1)NN=Cc1ccc(Oc2ccc(Cl)cc2)cc1` [6a, N'-(4–(4-chlorophenoxy)benzylidene)-2-((4-oxo-3-phenyl-3,4-dihydroquinazolin-2-yl)thio)acetohydrazide]: at EGFR, the midpoint of inhibition, the IC50, lay at 0.202 ± 0.012 µM. For the same molecule, the inhibition at 10 µM worked out at 40.8% in the series on CAKI-1 (setting [1]); 48.7% with MALME-3M (Malme-3M); 58% with RXF 393 (setting [2]); 51.2% with M14 (setting [3]); 41.1% in the series with HS 578T (Hs-578T); 35.5% in the series on MCF7 (setting [4]). The inhibition at 10 µM is 61.6% in the series on DU-145 (setting [5]); 41.3% in the series with MOLT-4 (setting [6]); under 15% in the series with HL-60(TB) (setting [7]); 16.2% in the series on SF-295 (setting [8]); 58.3% in the series with A549/ATCC (setting [9]); 16.3% in the series with KM12 (setting [10]). For the same molecule, the inhibition at 10 µM stood at 39.2% in the series with HCT-15 (setting [11]) and 84.8% in the series with U251 (setting [12]).
As for `COc1ccc(Oc2ccc(C=NNC(=O)CSc3nc4ccccc4c(=O)n3-c3ccc(Cl)cc3)cc2)cc1` [6f, 2-((3–(4-chlorophenyl)-4-oxo-3,4-dihydroquinazolin-2-yl)thio)-N'-(4–(4-methoxyphenoxy)benzylidene)acetohydrazide], it took 0.133 ± 0.008 µM to reach half-maximal inhibition on EGFR (IC50). Moreover, the inhibition at 10 µM in the series with MALME-3M (Malme-3M) was 36.1%; in the series with HS 578T (Hs-578T), over 100%; with MCF7 (setting [4]), 50.7%; in the series with DU-145 (setting [5]) it was 50.8%; with MOLT-4 (setting [6]) it was 38.3%; with HL-60(TB) (setting [7]), under 15%. Besides, the inhibition at 10 µM in the series on SF-295 (setting [8]) was found to be 32.3%; with A549/ATCC (setting [9]), 53%; with KM12 (setting [10]) it was 22.8%; in the series with HCT-15 (setting [11]), 44%; in the series with U251 (setting [12]), 63.5%.
With `O=C(CSc1nc2ccccc2c(=O)n1-c1ccccc1)NN=Cc1ccc(N2CCOCC2)cc1` [6h, N'-(4-morpholinobenzylidene)-2-((4-oxo-3-phenyl-3,4-dihydroquinazolin-2-yl)thio)acetohydrazide], the inhibition at 10 µM in the series with MALME-3M (MALME-3M, 10 μM) was under 15%; with HS 578T (HS 578T, 10 μM) it was under 15%; with MCF7 (setting [13]) it was under 15%; with DU-145 (setting [14]), under 15%; in the series with MOLT-4 (setting [15]), under 15%; with HL-60(TB) (setting [16]) it was under 15%. For the same molecule, the inhibition at 10 µM in the series with SF-295 (setting [17]), in the series on A549/ATCC (setting [18]), in the series with KM12 (setting [19]), with HCT-15 (setting [20]) and with U251 (setting [21]) was under 15% each time.
